From patent publication US12528802B2, “Heterocyclic compound” (Takeda Pharmaceutical Company Limited, priority 2019, dated 2026)

What follows are compounds tested against T1, glucosylceramide synthase (Homo sapiens, UniProt Q16739) (assay: Glucosylceramide synthase (GCS) enzyme assay, microsome fraction, C8 glucosylceramide quantified by Rapidfire MS/MS). Details: test compound 10 μM; 1.7 μM UDP-glucose, 3 μM C8 ceramide; room temperature 60 min.
T1 construct: made in house; host or cells: Expi293F cells (transient expression, pcDNA3.3-TOPO vector); microsome fraction used as enzyme source
T1 sequence (Q16739 1-394): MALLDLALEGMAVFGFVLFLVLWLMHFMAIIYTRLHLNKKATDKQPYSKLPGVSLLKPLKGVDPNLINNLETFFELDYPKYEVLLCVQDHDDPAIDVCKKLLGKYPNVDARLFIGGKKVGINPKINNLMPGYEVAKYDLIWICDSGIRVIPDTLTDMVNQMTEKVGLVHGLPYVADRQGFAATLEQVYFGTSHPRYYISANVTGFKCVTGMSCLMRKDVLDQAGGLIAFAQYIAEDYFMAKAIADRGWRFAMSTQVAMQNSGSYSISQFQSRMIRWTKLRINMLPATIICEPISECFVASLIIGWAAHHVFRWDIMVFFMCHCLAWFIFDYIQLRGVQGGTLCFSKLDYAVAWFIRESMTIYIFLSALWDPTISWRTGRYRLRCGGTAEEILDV
Type: biochemical
Description: Glucosylceramide Synthase (GCS) Assay
In enzyme assay, a microsome fraction obtained by transient expression by Expi293F™ cells (catalog number: A14527, Thermo Fisher Scientific) was used as a glucosylceramide synthase source. Liposomal C8 ceramide and UDP-glucose were used as substrates. […] After the enzymatic reaction, the analysis was performed with Rapidfire MS/MS (API-4000™, SCIEX), and C8 glucosylceramide was quantified to evaluate the inhibitory activity of the test compound against glucosylceramide synthase activity.
PcDNA3.3TOPO vector (catalog number: K830001, Thermo Fisher Scientific) into which the human GCS gene was inserted was introduced into Expi293F™ Cells (catalog number: A14527, Thermo Fisher Scientific) by using ExpiFectamine™ 293 Transfection Kit (catalog number: A14525, Thermo Fisher Scientific). The cultured cells were dissolved in D-PBS (catalog number: 048-29805, Fuji Film Wako Pure Chemical Industries, Ltd.) containing 1 mM PMSF, and the solution was allowed to stand on ice for 30 minutes, and then subjected to cell disruption (homogenized). The disruption solution was centrifuged at 10,000×g for 20 minutes at 4° C., and the obtained supernatant was centrifuged at 142,400×g for 60 minutes at 4° C. The obtained precipitate was resuspended in a D-PBS solution containing 1 mM PMSF, and homogenized again to prepare as a microsome fraction. Protein quantification was performed by the CBB method.
A 1 mM compound solution prepared by dissolving the test compound in DMSO was added to a 384-well plate by 100 nL so that the final concentration of the test compound was 10 μM. Next, a substrate solution consisting of 3.4 μM UDP-glucose and 6 μM C8 ceramide was added by 5 μL, followed by an enzyme solution consisting of a 25 μg/mL microsome fraction by 5 μL. C8 ceramide was prepared from liposomes composed of 15 mol % C8 ceramide and 85 mol % dioleoyl phosphatidylcholine (1,2-dioleoyl-sn-glycero-3-phosphocholine: DOPC). The enzymatic reaction was carried out in a solution consisting of 20 mM tris-hydrochloric acid buffer (pH 7.5), 0.01% Tween 20, 0.01% bovine serum albumin and 1 mM dithiothreitol at room temperature for 60 min. Then, a solution consisting of 75% isopropanol and 1% formic acid containing 0.25 μM N-Octadecanoyl-D35-psichosine (catalog number: 1914, Matreya) as an internal standard substance was added by 60 μL to stop the enzymatic reaction. 5 μL of the centrifugal supernatant of the obtained reaction product was analyzed by Rapidfire MS/MS (Agilent Technologies) using API-4000™ (SCIEX), and the C8 glucosylceramide was quantified to evaluate the inhibitory activity of the test compound against the glucosylceramide synthase activity. The inhibitory activity of the test compound was evaluated when the C8 glucosylceramide level in the enzyme-free solution was considered as 100% inhibitory and the enzyme activity of the DMSO group in the absence of the compound was considered as 0% inhibitory.
`O=C1c2ccnc(-c3ccc(F)cc3OCC(F)(F)F)c2CN1c1ccc(C2(O)CCOC2)cc1` (single isomer, unassigned) [Example 263, (R or S)-4-[4-fluoro-2-(2,2,2-trifluoroethoxy)phenyl]-2-[4-(3-hydroxyoxolan-3-yl)phenyl]-2,3-dihydro-1H-pyrrolo[3,4-c]pyridin-1-one] was tested, and the “GCS enzyme inhibitory rate at 10 μM (%) (% of control)” value was 98%.
For `Cc1cncc(OCC(F)(F)F)c1-c1nccc2c1CN(c1ccc(OC(F)F)cc1)C2=O` [Example 198, 2-[4-(difluoromethoxy)phenyl]-4-[3-methyl-5-(2,2,2-trifluoroethoxy)pyridin-4-yl]-2,3-dihydro-1H-pyrrolo[3,4-c]pyridin-1-one], the “GCS enzyme inhibitory rate at 10 μM (%) (% of control)” value was 99%.

Same assay, conditions: test compound 10 μM; 1.7 μM UDP-glucose, 3 μM C8 ceramide; room temperature 60 min; read-out: GCS enzyme inhibitory rate at 10 μM (%) (% of control)
`N#CCc1ccc(N2Cc3c(ccnc3-c3ccc(F)cc3OCC(F)(F)F)C2=O)cc1` [Example 237, (4-{4-[4-fluoro-2-(2,2,2-trifluoroethoxy)phenyl]-1-oxo-1,3-dihydro-2H-pyrrolo[3,4-c]pyridin-2-yl}phenyl)acetonitrile] was tested, and the inhibition at 10 µM was 91%.
With `CC(C)(O)c1ccc(N2Cc3c(cc(C4CCOC4)nc3-c3ccccc3OCC(F)F)C2=O)cc1` (racemic) [Example 390, rac-4-[2-(2,2-difluoroethoxy)phenyl]-2-[4-(2-hydroxypropan-2-yl)phenyl]-6-(oxolan-3-yl)-2,3-dihydro-1H-pyrrolo[3,4-c]pyridin-1-one] the inhibition at 10 µM was 77%.
Work on `Cc1cc2c(c(-c3ccccc3OCC(F)(F)F)n1)CN(c1ccc(OCC(C)(C)O)nc1)C2=O` [Example 367, 2-[6-(2-hydroxy-2-methylpropoxy)pyridin-3-yl]-6-methyl-4-[2-(2,2,2-trifluoroethoxy)phenyl]-2,3-dihydro-1H-pyrrolo[3,4-c] pyridin-1-one] yielded an inhibition at 10 µM of 99%.
Compound `CC(=O)c1ccc(N2Cc3c(ccnc3-c3c(F)cccc3OCC(F)(F)F)C2=O)cc1` [Example 319, 2-(4-acetylphenyl)-4-[2-fluoro-6-(2,2,2-trifluoroethoxy)phenyl]-2,3-dihydro-1H-pyrrolo[3,4-c]pyridin-1-one] has an inhibition at 10 µM of 97%.
In the case of `Cc1ccc(N2Cc3c(ccnc3-c3ccc(F)cc3OCC(F)(F)F)C2=O)cn1` [Example 89, 4-[4-fluoro-2-(2,2,2-trifluoroethoxy)phenyl]-2-(6-methylpyridin-3-yl)-2,3-dihydro-1H-pyrrolo[3,4-c]pyridin-1-one], the inhibition at 10 µM is reported as 96%.
`N#Cc1ccc(N2Cc3c(ccnc3-c3ccccc3OC(F)F)C2=O)nc1` [Example 73, 6-{4-[2-(difluoromethoxy)phenyl]-1-oxo-1,3-dihydro-2H-pyrrolo[3,4-c]pyridin-2-yl}pyridine-3-carbonitrile] showed an inhibition at 10 µM of 90%.
Compound `O=C1c2ccnc(-c3ccc(F)cc3OCC(F)(F)F)c2CN1c1ccc(C2(O)CCOCC2)cn1` [Example 257, 4-[4-fluoro-2-(2,2,2-trifluoroethoxy)phenyl]-2-[5-(4-hydroxyoxan-4-yl)pyridin-2-yl]-2,3-dihydro-1H-pyrrolo[3,4-c]pyridin-1-one] has an inhibition at 10 µM of 99%.
Compound `CC(C)(O)COc1ccc(N2Cc3c(ccnc3-c3ccccc3OCC(F)(F)F)C2=O)nc1` [Example 297, 2-[5-(2-hydroxy-2-methylpropoxy)pyridin-2-yl]-4-[2-(2,2,2-trifluoroethoxy)phenyl]-2,3-dihydro-1H-pyrrolo[3,4-c]pyridin-1-one] has an inhibition at 10 µM of 100%.
`CC(C)(CO)c1ccc(N2Cc3c(ccnc3-c3ccc(F)cc3OCC(F)(F)F)C2=O)cc1` [Example 253, 4-[4-fluoro-2-(2,2,2-trifluoroethoxy)phenyl]-2-[4-(1-hydroxy-2-methylpropan-2-yl)phenyl]-2,3-dihydro-1H-pyrrolo[3,4-c]pyridin-1-one] was tested, and the inhibition at 10 µM was 98%.
Work on `O=C1c2ccnc(-c3ccc(F)cc3OCC(F)(F)F)c2CN1c1cnc(OC(F)F)nc1` [Example 151, 2-[2-(difluoromethoxy)pyrimidin-5-yl]-4-[4-fluoro-2-(2,2,2-trifluoroethoxy)phenyl]-2,3-dihydro-1H-pyrrolo[3,4-c]pyridin-1-one] yielded an inhibition at 10 µM of 94%.
With `N#Cc1ccc(N2Cc3c(ccnc3-c3ccccc3OCC(F)(F)F)C2=O)nc1` [Example 72, 6-{1-oxo-4-[2-(2,2,2-trifluoroethoxy)phenyl]-1,3-dihydro-2H-pyrrolo[3,4-c]pyridin-2-yl}pyridine-3-carbonitrile] the inhibition at 10 µM was 100%.
Compound `O=C1c2ccnc(-c3ccccc3OCC(F)(F)F)c2CN1c1ccc(C2(O)CC2)cn1` [Example 265, 2-[5-(1-hydroxycyclopropyl)pyridin-2-yl]-4-[2-(2,2,2-trifluoroethoxy)phenyl]-2,3-dihydro-1H-pyrrolo[3,4-c]pyridin-1-one] has an inhibition at 10 µM of 100%.
`CC(C)(O)C(F)(F)c1ccc(N2Cc3c(ccnc3-c3ccccc3OCC(F)F)C2=O)cc1` [Example 339, 4-[2-(2,2-difluoroethoxy)phenyl]-2-[4-(1,1-difluoro-2-hydroxy-2-methylpropyl)phenyl]-2,3-dihydro-1H-pyrrolo[3,4-c]pyridin-1-one] showed an inhibition at 10 µM of 99%.
`Fc1ccc(N2Cc3ccnc(-c4ccc(F)cc4OCC(F)(F)F)c3C2)cc1` [Example 111, 2-(4-fluorophenyl)-4-[4-fluoro-2-(2,2,2-trifluoroethoxy)phenyl]-2,3-dihydro-1H-pyrrolo[3,4-c]pyridine] was tested, and the inhibition at 10 µM was 92%.
With `CC(C)(O)c1cc2c(c(-c3ccccc3OCC(F)F)n1)CN(c1ccc(C(F)F)cc1)C2=O` [Example 357, 4-[2-(2,2-difluoroethoxy)phenyl]-2-[4-(difluoromethyl)phenyl]-6-(2-hydroxypropan-2-yl)-2,3-dihydro-1H-pyrrolo[3,4-c] pyridin-1-one] the inhibition at 10 µM was 100%.
In the case of `O=C1c2ccnc(-c3ccc(F)cc3OCC(F)(F)F)c2CN1c1ccc(C(O)C(F)(F)F)cc1` (single isomer, unassigned) [Example 285, (R or S)-4-[4-fluoro-2-(2,2,2-trifluoroethoxy)phenyl]-2-[4-(2,2,2-trifluoro-1-hydroxyethyl)phenyl]-2,3-dihydro-1H-pyrrolo [3,4-c]pyridin-1-one], the inhibition at 10 µM is reported as 97%.
With `CC(O)(c1ccc(N2Cc3c(ccnc3-c3ccc(F)cc3OCC(F)(F)F)C2=O)cc1)C(F)F` (single isomer, unassigned) [Example 311, (R or S)-2-[4-(1,1-difluoro-2-hydroxypropan-2-yl)phenyl]-4-[4-fluoro-2-(2,2,2-trifluoroethoxy)phenyl]-2,3-dihydro-1H-pyrrolo[3,4-c]pyridin-1-one] the inhibition at 10 µM was 100%.
In the case of `COc1ccccc1-c1nccc2c1CN(c1ccc(OC(F)F)nc1)C2=O` [Example 27, 2-[6-(difluoromethoxy)pyridin-3-yl]-4-(2-methoxyphenyl)-2,3-dihydro-1H-pyrrolo[3,4-c]pyridin-1-one], the inhibition at 10 µM is reported as 93%.
`O=C1c2ccnc(-c3ccccc3OC(F)F)c2CN1c1ccc(OC(F)F)nc1` [Example 74, 4-[2-(difluoromethoxy)phenyl]-2-[6-(difluoromethoxy)pyridin-3-yl]-2,3-dihydro-1H-pyrrolo[3,4-c]pyridin-1-one] gave an inhibition at 10 µM of 91%.
`O=C1c2ccnc(-c3ccccc3OCC(F)(F)F)c2CN1c1ccc(C(O)C2CC2)cc1` (racemic) [Example 329, rac-2-{4-[cyclopropyl(hydroxy)methyl]phenyl}-4-[2-(2,2,2-trifluoroethoxy)phenyl]-2,3-dihydro-1H-pyrrolo[3,4-c]pyridin-1-one] was tested, and the inhibition at 10 µM was 100%.
